Data set [1] in a line: Solubility. The class given is physicochemical. The settings on record: for solubility / solubility in water (in words): in water; for solubility in ethanol: in ethanol at 95° GL.
For data set [2], the system named is pentamethylene tetrazole-induced tonic spasms. As to the kind of experiment: Anti-pentamethylene tetrazole activity. In kind it is in vivo, male mice of the Swiss strain. The following applies: Mus musculus, male Swiss mice. As for the experimental part: This test is carried out on a group of 10 male mice of the Swiss strain. 15 minutes after the subcutaneous injection of 125 mg/kg of pentamethylene tetrazole, the mice have tonic spasms of which the outcome is fatal.
For the test, the compound is administered orally 60 minutes before the injection of pentamethylene tetrazole. The animals are observed for 2 hours after administration of the pentamethylene tetrazole. In some particular cases, the tests were confirmed by intraperitoneal administration. The results are expressed by the effective dose DE50 (Goodman et Col.--J. Pharmacol. 108, 1953).
As Japanese Pat. No. 148,340 has been cited in copending application Ser. No. 916,651, filed June 19, 1978, comparisons between compounds of this closest prior art and the compounds of the invention were undertaken in the form of a controlled study.
The major consideration surrounded the similarity in the compounds, particularly in the substitution at the R position. The study compared ten compounds of the invention, which differed from the Japanese prior art only in that the compounds of the invention are alkylated at the R position while the prior art compounds are all hydrogenated at that position.
The compounds were tested for anti-pentamethylene tetrazole activity, the test described on p.

Data set [3] can be described thus: Toxicity test (LD50, Miller and Tainter). The following applies: mouse, in vivo, mice. As to the method: The compounds according to the invention were subjected to toxicity tests. It was tested in batches of 10 mice by oral, intraperitoneal and, in some cases, intravenous administration and was calculated in accordance with Miller and Tainter's method (Proc. Soc. exper. Biol. Med., 1944, 57, 261).

The test system of data set [4] is male Swiss mice. As to the kind of experiment: Rota-Rod test. The class given is in vivo. The settings on record: falls off rod in less than 2 minutes. As to the method: This test is carried out on male Swiss mice. The mouse is placed on a 3 cm diameter wooden rod rotating at 5 revolutions per minute. The mice which succeed in remaining on the rod for at least 3 minutes in successive tests are selected and gathered into groups of 10 for the test of each dose. If the mouse falls off the rod in less than 2 minutes, the tested compound is considered to be effective. The results are expressed by the effective dose DE50 according to N. W. Dunham and T. S. Miva--J. amer. pharm. Ass., 1957, 46, 208.
On the technique in general: The rotarod test checks motor coordination on a turning rod.

The mark [5] stands for this setting: ip, intraperitoneal, 125 mg/kg s.c. pentamethylene tetrazole, read-out: anti-pentamethylene tetrazole activity DE50 I.P.
[6] abbreviates: oral, 60 min before 125 mg/kg s.c. pentamethylene tetrazole, read-out: anti-pentamethylene tetrazole activity DE50 P.O.
Setting [7] is: ip, intraperitoneal, read-out: DL50 I.P.
Where [8] appears, read: intravenous, read-out: DL50 I.V.

Where a name gives a salt, the structure may show the parent alone. Read-outs that look alike come from different tables or passages of the source.

On to `CN(C(=O)CN1CCOCC1)c1ccc(Cl)cc1C(=O)c1ccccc1` [Example 18, N-Methyl-2-morpholino-(2'-benzoyl-4'-chloro)-acetanilide hydrochloride], for which the solubility – broadly, how much of the substance goes into solution per volume – in data set [1] is 100 mg/mL. Further, the ED50 was 1.4 mg/kg in data set [2] (setting [5]) and 3.3 mg/kg in data set [2] (setting [6]). In addition, the LD50 was found to be 750 mg/kg in data set [3] (setting [7]); 103 mg/kg in data set [3] (setting [8]); 1700 mg/kg in data set [3] (oral, read-out: DL50 oral). Also, the “Rota Rod DE50 V.O.” value in data set [4] is 60.
Turning to `CN(C(=O)CNC1CCCCC1)c1ccc(Cl)cc1C(=O)c1ccccc1` [Example 11, N-Methyl-N'-cyclohexyl-(2-benzoyl-4-chloro)-glycinanilide hydrochloride], in data set [1], the “solubility in dimethyl formamide” value was 1%. Moreover, the solubility in ethanol in data set [1] is 3%. Further, in data set [1], the “solubility in water (in words)” value is on record as “insoluble”. For the same compound, the figures for the ED50 in data set [2] (setting [5]) and in data set [2] (setting [6]) were 1.25 mg/kg and 1.35 mg/kg, respectively. The LD50 in data set [3] (setting [7]) was 305 mg/kg; in data set [3] (setting [8]), 50 mg/kg; in data set [3] (oral, read-out: DL50 oral), 1050 mg/kg. Also, the “Rota Rod DE50 V.O.” value in data set [4] is reported as 27.
Consider `CN(CCO)CC(=O)N(C)c1ccc(Cl)cc1C(=O)c1ccccc1` [Example 14, N,N'-dimethyl-N'-(2'-hydroxyethyl)-(2-benzoyl-4-chloro)-glycinanilide], for which the “solubility in dimethyl formamide” value in data set [1] was 20%. Besides, the solubility in ethanol in data set [1] was found to be 20%. Further, the “solubility in water (in words)” value in data set [1] is recorded as “insoluble”. In addition, the results for the ED50 in data set [2] (setting [5]) and in data set [2] (setting [6]) were 1.5 mg/kg and 1.7 mg/kg, respectively. Moreover, the LD50 in data set [3] (setting [7]) is 350 mg/kg; in data set [3] (setting [8]), 55 mg/kg; in data set [3] (oral, read-out: DL50 oral), 1200 mg/kg. In data set [4], the “Rota Rod DE50 V.O.” value came out at 66.
The compound `C=C(C)CNCC(=O)N(C)c1ccc(Cl)cc1C(=O)c1ccccc1` [Example 19, N-Methyl-N'-(2'-methylallyl)-(2-benzoyl-4-chloro)-glycinanilide hydrochloride] showed a solubility in data set [1] of 50 mg/mL. Besides, the ED50 in data set [2] (setting [5]) turned out to be 1.1 mg/kg; in data set [2] (setting [6]), 1.7 mg/kg. The LD50 was 500 mg/kg in data set [3] (setting [7]); 60 mg/kg in data set [3] (setting [8]); 1500 mg/kg in data set [3] (oral, read-out: DL50 oral). The “Rota Rod DE50 V.O.” value in data set [4] was found to be 21.
